Measured values from patent US12485169B2, “Compounds” (GREY WOLF THERAPEUTICS LIMITED, priority 2018, dated 2025).
pIC50: −log10 of the molar value.

Target: T1, Purified ERAP1 (37-941)-10His (ERAP1) (Homo sapiens, UniProt Q9NZ08)
T1 construct: Purified ERAP1 (37-941)-10His (ERAP1)
Assay: ERAP1 mediated hydrolysis of an amide substrate (10-mer inhibition assay), biochemical system
Conditions: 10-mer substrate, 23° C., 1 h, excitation 279 nm / emission 355 nm; read-out: IC50 vs Decapeptide WRVYEKC(Dnp)ALK-acid (where Dnp is Dinitrophenyl maleimide) (10-mer)
Experimental: However, as ERAP1 hydrolyses the N-terminal amide bond and tryptophan is released this internal quenching is lost and the reaction is monitored by the increase in tryptophan fluorescence over the course of the assay. For the purposes of this application this assay is referred to as the “10mer inhibition assay” and compound potencies are calculated and expressed as IC50 as would be familiar to a person skilled in the art.
Biological Assay 1: ERAP1 Mediated Hydrolysis of an Amide Substrate Measured in a Biochemical System
Decapeptide WRVYEKC(Dnp)ALK-acid (where Dnp is Dinitrophenyl maleimide) (10-mer) L-Leucine 7-amido-4-methylcoumarin (L-AMC)
12.5 μL ERAP1 enzyme in 1×AB was combined with 250 nL test compound in DMSO. […] For detection, plates were read at excitation 365 nm and emission 442 nm (L-AMC) or excitation 279 nm and emission 355 nm (10-mer).

T1 sequence (Q9NZ08 37-941): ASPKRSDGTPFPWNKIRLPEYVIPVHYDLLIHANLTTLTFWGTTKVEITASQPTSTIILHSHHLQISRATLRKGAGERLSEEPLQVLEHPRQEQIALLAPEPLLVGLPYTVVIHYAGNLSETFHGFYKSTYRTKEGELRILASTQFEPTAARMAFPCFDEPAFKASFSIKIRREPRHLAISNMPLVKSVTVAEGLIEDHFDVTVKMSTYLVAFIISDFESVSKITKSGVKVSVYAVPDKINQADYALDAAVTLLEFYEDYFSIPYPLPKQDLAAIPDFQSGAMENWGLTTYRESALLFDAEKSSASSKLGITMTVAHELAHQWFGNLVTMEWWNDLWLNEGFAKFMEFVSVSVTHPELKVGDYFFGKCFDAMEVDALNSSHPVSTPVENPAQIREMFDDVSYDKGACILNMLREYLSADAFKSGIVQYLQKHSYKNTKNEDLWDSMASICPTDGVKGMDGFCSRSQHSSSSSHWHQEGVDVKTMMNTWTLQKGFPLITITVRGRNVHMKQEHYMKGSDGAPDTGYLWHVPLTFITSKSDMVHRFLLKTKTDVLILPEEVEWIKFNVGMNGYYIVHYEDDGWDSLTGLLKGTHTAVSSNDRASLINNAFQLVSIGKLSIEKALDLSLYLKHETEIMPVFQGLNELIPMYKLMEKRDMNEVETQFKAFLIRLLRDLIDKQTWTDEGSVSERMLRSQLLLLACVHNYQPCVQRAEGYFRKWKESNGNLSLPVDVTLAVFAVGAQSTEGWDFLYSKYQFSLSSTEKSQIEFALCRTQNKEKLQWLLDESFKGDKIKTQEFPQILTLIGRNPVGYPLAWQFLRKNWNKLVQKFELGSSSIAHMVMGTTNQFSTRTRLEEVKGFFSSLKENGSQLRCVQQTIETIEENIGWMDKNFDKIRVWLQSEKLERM

SMILES | pIC50
COc1ccc(C(=O)O)cc1S(=O)(=O)Nc1cc(C(F)(F)F)ccc1N1CCN(C(C)=O)CC1 [Example 34, 3-(N-(2-(4-acetylpiperazin-1-yl)-5-(trifluoromethyl)phenyl)sulfamoyl)-4-methoxybenzoic acid] | < 5.30
COc1ccc(C(=O)O)cc1S(=O)(=O)Nc1cc(C(F)(F)F)ccc1N1CCC(O)CC1 [Example 35, 3-(N-(2-(4-hydroxypiperidin-1-yl)-5-(trifluoromethyl)phenyl)sulfamoyl)-4-methoxybenzoic acid] | > 6.30
COc1ccc(C(=O)O)cc1S(=O)(=O)Nc1cc(C(F)(F)F)ccc1N1CCC(O)C1 (stereo not shown) [Example 36, 3-(N-(2-(3-hydroxypyrrolidin-1-yl)-5-(trifluoromethyl)phenyl)sulfamoyl)-4-methoxybenzoic acid] | > 5.30
COc1ccc(C(=O)O)cc1S(=O)(=O)Nc1cc(C(F)(F)F)ccc1N1CC(O)C1 [Example 37, 3-(N-(2-(3-hydroxyazetidin-1-yl)-5-(trifluoromethyl)phenyl)sulfamoyl)-4-methoxybenzoic acid] | > 5.30
COc1ccc(C(=O)O)cc1S(=O)(=O)Nc1cc(C(F)(F)F)ccc1N1CCC(C)(C)C1 [Example 39, 3-(N-(2-(3,3-dimethylpyrrolidin-1-yl)-5-(trifluoromethyl)phenyl)sulfamoyl)-4-methoxybenzoic acid] | > 5.30
COc1ccc(C(=O)O)cc1S(=O)(=O)Nc1cc(C(F)(F)F)ccc1N1CCN2CCC[C@@H]2C1 [Example 40, (R)-3-(N-(2-(hexahydropyrrolo[1,2-a]pyrazin-2(1H)-yl)-5-(trifluoromethyl)phenyl)sulfamoyl)-4-methoxybenzoic acid] | > 5.30
COc1ccc(C(=O)O)cc1S(=O)(=O)Nc1cc(C(F)(F)F)ccc1N1CCCCC1=O [Example 41, 4-methoxy-3-(N-(2-(2-oxopiperidin-1-yl)-5-(trifluoromethyl)phenyl)sulfamoyl)benzoic acid] | > 6.30
Cc1ccc(C(=O)O)cc1S(=O)(=O)Nc1cc(C(F)(F)F)ccc1N1CCCOCC1 [Example 42, 3-(N-(2-(1,4-oxazepan-4-yl)-5-(trifluoromethyl)phenyl)sulfamoyl)-4-methylbenzoic acid] | < 5.30
CCc1ccc(C(=O)O)cc1S(=O)(=O)Nc1cc(C(F)(F)F)ccc1N1CCCOCC1 [Example 43, 3-(N-(2-(1,4-oxazepan-4-yl)-5-(trifluoromethyl)phenyl)sulfamoyl)-4-ethylbenzoic acid] | > 6.30
COc1ccc(C(=O)O)cc1S(=O)(=O)Nc1cc(C(F)(F)F)ccc1N1CCCC1c1cc(C)no1 (stereo not shown) [Example 46, 4-methoxy-3-(N-(2-(2-(3-methylisoxazol-5-yl)pyrrolidin-1-yl)-5-(trifluoromethyl)phenyl)sulfamoyl)benzoic acid] | > 5.30
COc1ccc(C(=O)O)cc1NS(=O)(=O)c1cc(C(F)(F)F)ccc1N1CCCCC1 [Example 49, 4-methoxy-3-((2-(piperidin-1-yl)-5-(trifluoromethyl)phenyl)sulfonamido)benzoic acid] | > 6.30

The remaining lines, values ahead:

pIC50 | SMILES
> 6.30 | COc1ccc(C(=O)O)cc1NS(=O)(=O)c1cc(C(F)(F)F)ccc1N(C)C [Example 51, 3-((2-(dimethylamino)-5-(trifluoromethyl)phenyl)sulfonamido)-4-methoxybenzoic acid]
> 5.30 | COc1ccc(C(=O)O)cc1NS(=O)(=O)c1cc(C(F)(F)F)ccc1N1CCOCC1 [Example 52, 4-methoxy-3-((2-morpholino-5-(trifluoromethyl)phenyl)sulfonamido)benzoic acid]
> 6.30 | COc1ccc(C(=O)O)cc1S(=O)(=O)Nc1cc(C(F)(F)F)ccc1N1CCCCC1 [Example 54, 4-methoxy-3-(N-(2-(piperidin-1-yl)-5-(trifluoromethyl)phenyl)sulfamoyl)benzoic acid]
> 6.30 | CC(C)c1ccc(C(=O)O)cc1S(=O)(=O)Nc1cc(C(F)(F)F)ccc1N1CCCCCC1 [Example 55, 3-(N-(2-(azepan-1-yl)-5-(trifluoromethyl)phenyl)sulfamoyl)-4-isopropylbenzoic acid]
> 6.30 | O=C(O)c1cc(F)cc(S(=O)(=O)Nc2cc(C(F)(F)F)ccc2N2CCCCC2)c1 [Example 59, 3-fluoro-5-(N-(2-(piperidin-1-yl)-5-(trifluoromethyl)phenyl)sulfamoyl)benzoic acid]
< 5.30 | CCc1ccc(C(=O)O)cc1S(=O)(=O)Nc1cc(C(F)(F)F)ccc1N1CCCCCC1 [Example 61, 3-(N-(2-(azepan-1-yl)-5-(trifluoromethyl)phenyl)sulfamoyl)-4-ethylbenzoic acid]
> 6.30 | Cc1ccc(C(=O)O)cc1S(=O)(=O)Nc1cc(C(F)(F)F)ccc1N1CCCCCC1 [Example 62, 3-(N-(2-(azepan-1-yl)-5-(trifluoromethyl)phenyl)sulfamoyl)-4-methylbenzoic acid]
> 5.30 | COc1ccc(-c2nn[nH]n2)cc1NS(=O)(=O)c1cc(C(F)(F)F)ccc1N1CCCCC1 [Example 63, N-(2-methoxy-5-(tetrazol-5-yl)phenyl)-2-(piperidin-1-yl)-5-(trifluoromethyl) benzenesulfonamide]
> 6.30 | COc1ccc(C(=O)O)cc1S(=O)(=O)Nc1ccc(Cl)cc1N1CCCCC1 [Example 65, 3-(N-(4-chloro-2-(piperidin-1-yl)phenyl)sulfamoyl)-4-methoxybenzoic acid]
> 6.30 | COc1ccc(C(=O)O)cc1S(=O)(=O)Nc1cc(Cl)ccc1N1CCCCC1 [Example 66, 3-(N-(5-chloro-2-(piperidin-1-yl)phenyl)sulfamoyl)-4-methoxybenzoic acid]
> 6.30 | Cc1ccc(C(=O)O)cc1S(=O)(=O)Nc1cc(C(F)(F)F)ccc1N1CCCCC1 [Example 67, 4-methyl-3-(N-(2-(piperidin-1-yl)-5-(trifluoromethyl)phenyl)sulfamoyl)benzoic acid]
> 6.30 | COc1ccc(C(=O)O)cc1S(=O)(=O)Nc1cc(C(F)(F)F)ccc1N1CCCCCC1 [Example 68, 3-(N-(2-(azepan-1-yl)-5-(trifluoromethyl)phenyl)sulfamoyl)-4-methoxybenzoic acid]
> 5.30 | Cc1ccc(S(=O)(=O)Nc2cc(C(F)(F)F)ccc2N2CCCCC2)cc1C(=O)O [Example 70, 2-methyl-5-(N-(2-(piperidin-1-yl)-5-(trifluoromethyl)phenyl)sulfamoyl)benzoic acid]
> 6.30 | COc1ccc(C(=O)O)cc1S(=O)(=O)Nc1cc(C(F)(F)F)ccc1N1CCOCC1 [Example 72, 4-methoxy-3-(N-(2-morpholino-5-(trifluoromethyl)phenyl)sulfamoyl)benzoic acid]
> 5.30 | COc1ccc(C(=O)O)cc1S(=O)(=O)Nc1cc(C(F)(F)F)ccc1N1CCCC1 [Example 75, 4-methoxy-3-(N-(2-(pyrrolidin-1-yl)-5-(trifluoromethyl)phenyl)sulfamoyl)benzoic acid]
> 5.30 | COc1ccc(C(=O)O)cc1S(=O)(=O)Nc1cc(C(F)(F)F)ccc1N(C)C [Example 77, 3-(N-(2-(dimethylamino)-5-(trifluoromethyl)phenyl)sulfamoyl)-4-methoxybenzoic acid]
> 5.30 | O=C(O)c1cc(Cl)cc(S(=O)(=O)Nc2cc(C(F)(F)F)ccc2N2CCCCC2)c1 [Example 80, 3-chloro-5-(N-(2-(piperidin-1-yl)-5-(trifluoromethyl)phenyl)sulfamoyl)benzoic acid]
